Experimental data taken from patent US10683525B2, “Method for producing 2-O-glyceryl-alpha-D-glucopyranoside” (Technische Universität Graz, priority 2006, dated 2020).

Test system: mannitol dehydrogenase, MDH
Test: Stabilization of proteins during freeze drying
Assay type: biochemical
Settings: MDH 0.8 mg/ml, 20-1500 mM αGG in 100 mM Tris/HCl buffer pH 7.0, lyophilized over-night and redissolved; irrespective of the added αGG concentration; 2% without any stabilizer
Protocol: The protein of interest (e.g. mannitol dehydrogenase, MDH) was incubated at a concentration of 0.8 mg/ml in the presence of 0, 20, 50, 100, 500, 1000 or 1500 mM αGG in 100 mM Tris/HCl buffer, pH 7.0. The samples were lyophilized over-night and dissolved in the same buffer again. The specific enzyme activity was determined, using appropriate assays for the corresponding enzyme as described elsewhere (Slatner M. et al., Biochemistry 38: 10489-10498), before and after freeze drying. Without any stabilizer added the enzymatic activity of MDH dropped down to 2% after freeze drying, whereas αGG is able to maintain enzymatic activity up to 48% irrespective of the added αGG concentration.

enzymatic activity of MDH maintained after freeze drying: up to 48%
SMILES: OCC(CO)O[C@H]1O[C@H](CO)[C@@H](O)[C@H](O)[C@H]1O [αGG, 2-O-glyceryl-α-D-glucopyranoside]
